Reference: US20250059141A1, “TLR MODULATOR AND USE THEREOF” (DUALITY BIOLOGICS (SUZHOU) CO., LTD., priority 2021, published 2025)

System: IFN-α production in human PBMCs
Assay: Induction of IFN-α in human PBMCs (ELISA)
Format: cell-based
Conditions: PBMC, 24 h, serial 3-fold dilutions, read-out: PBMC assay IFNa EC50
Procedure: In this example, the induction activity of the compounds of the present application on human PBMCs for TNF-α and IFN-α production was assessed in human PBMCs (human peripheral blood mononuclear cells). The human PBMCs were purchased from Shanghai Saily Biotechnology Co., Ltd. (Cat. No. XFB—HP100B). PBMC cells were treated with the compounds. The compounds of the present application are diluted in DMSO, for example, to about 15 mM. The reference compound was added to the plates in sequence after diluted to 5 mg/mL. The compounds were serially 3- or 4-fold diluted to 8 concentrations and added to plates in duplicate (Table 2-1 for serial 3-fold dilutions and Table 2-2 for serial 4-fold dilutions). For the negative control wells, DMSO was added at 0.4 μL/well, and a 5 mg/mL reference compound solution was added to the positive control wells at 0.4 μL/well. The final concentration of DMSO was 0.2%. Frozen human PBMCs in cryopreservation tubes were quickly thawed in a 37° C. water bath and transferred into 50-mL centrifuge tubes. Prewarmed RPMI1640 medium was gradually added and the mixture was well mixed and centrifuged for 15 min before the supernatant was discarded. The cells were resuspended in a culture medium and counted. The cell suspension was adjusted to 2.5×10^6 cells/mL with the culture medium. Diluted cells were added at 200 μL/500,000 cells/well in 96-well plates containing the compounds. The cell plates were incubated at 37° C./5% CO2 for 24 h.
The plate was washed 4 times, then the detection antibody was added. […] The plate was washed 4 additional times, then the enzyme was added. […] Termination of reaction: The reaction was terminated by quickly adding the stop solution at 100 μL/well. Plate reading: The reading at wavelength 450 nm was detected by an M2e instrument within 10 min after the termination.
Compound activity data analysis: The OD450 values were converted to TNF-α and IFN-α contents by GraphPad Prism software analysis and fitted to give dose-response curves of the compounds. The EC50 values for the compounds were calculated, where the Emax values are the maximal values for TNF-α and IFN-α.

In order of rising EC50:
1. CCCN(OCc1ccc(N)cc1)C(=O)C1=Cc2ccc(-c3cncc(CO)c3)cc2N=C(N)C1 [Compound 15]  3.02 nM
2. CCCN(OCc1ccc(N)cc1)C(=O)C1=Cc2ccc(-c3cncc(CN)c3)cc2N=C(N)C1 [Compound 54]  5.35 nM
3. NC1=Nc2cc(-c3cncc(CO)c3)ccc2C=C(C(=O)N(CC2CC2)OCc2ccc(N)cc2)C1 [Compound 45]  7.25 nM
4. CCCN(OCc1ccc(N)cc1)C(=O)C1=Cc2ccc(-c3cncc(S(C)(=O)=O)c3)cc2N=C(N)C1 [Compound 56]  28.5 nM
5. CCCN(OCc1ccc(N)cc1)C(=O)C1=Cc2ccc(-c3cccc(S(=O)(=O)N4CC(O)C4)c3)cc2N=C(N)C1 [Compound 41]  31.1 nM
6. CCCN(OCc1ccc(N)cc1)C(=O)C1=Cc2ccc(-c3cncc(C#N)c3)cc2N=C(N)C1 [Compound 50]  41.5 nM
7. CCCN(OCc1ccc(N)cc1)C(=O)C1=Cc2ccc(-c3cncc(Cl)c3)cc2N=C(N)C1 [Compound 49]  48.2 nM

Same assay, conditions: PBMC, 24 h, serial 4-fold dilutions, class symbols, read-out: PBMC assay IFNa EC50

Compared with `CCCN(OCc1ccc(N)cc1)C(=O)C1=Cc2ccc(C(=O)Nc3ccc4cn[nH]c4c3)cc2N=C(N)C1` [Compound 89], `CCCN(OCc1ccc(N)cc1)C(=O)C1=Cc2ccc(C(=O)NCCO)cc2N=C(N)C1` [Compound 48] is higher in EC50: 50 to 500 nM for the first, > 500 nM for the second.

`CCCN(OCc1ccc(N)cc1)C(=O)C1=Cc2ccc(-c3cncc(S(=O)(=O)N4CCNCC4)c3)cc2N=C(N)C1` [Compound 69] and `CCCN(OCc1ccc(N)cc1)C(=O)C1=Cc2ccc(-c3cccc(S(=O)(=O)N4CC(O)C4)c3)cc2N=C(N)C1` [Compound 41] fall in the same range of EC50: 50 to 500 nM for the first, 50 to 500 nM for the second.

First: CCCN(OCc1ccc(N)cc1)C(=O)C1=Cc2ccc(C(=O)N[C@H]3C[C@@H]3c3ccccc3)cc2N=C(N)C1 [Compound 78]
Second: CCCN(OCc1ccc(N)cc1)C(=O)C1=Cc2ccc(C(=O)NC3CCOCC3)cc2N=C(N)C1 [Compound 84]
The EC50 of the first is lower: ≤ 10 nM for the first, 50 to 500 nM for the second.

First: CCCN(OCc1ccc(N)cc1)C(=O)C1=Cc2ccc(C(=O)N3CC(CO)C3)cc2N=C(N)C1 [Compound 37]
Second: CCCN(OCc1ccc(N)cc1)C(=O)C1=Cc2ccc(-c3cccc(S(=O)(=O)NCCO)c3)cc2N=C(N)C1 [Compound 64]
The EC50 of the first is higher: > 500 nM for the first, 10 to 50 nM for the second. The second is the more potent here.

In the case of `CCCN(OCc1ccc(N)cc1)C(=O)C1=Cc2ncc(-c3cncc(CO)c3)cc2N=C(N)C1` [Compound 61], the EC50 is reported as 10 to 50 nM.

Molecular target: T1, hTLR8 (human Toll-like receptor 8) (Homo sapiens, UniProt Q9NR97)
T1 construct: host or cells: HEK-Blue hTLR8 (HEK293-derived reporter cells)
T1 sequence (Q9NR97 27-1041): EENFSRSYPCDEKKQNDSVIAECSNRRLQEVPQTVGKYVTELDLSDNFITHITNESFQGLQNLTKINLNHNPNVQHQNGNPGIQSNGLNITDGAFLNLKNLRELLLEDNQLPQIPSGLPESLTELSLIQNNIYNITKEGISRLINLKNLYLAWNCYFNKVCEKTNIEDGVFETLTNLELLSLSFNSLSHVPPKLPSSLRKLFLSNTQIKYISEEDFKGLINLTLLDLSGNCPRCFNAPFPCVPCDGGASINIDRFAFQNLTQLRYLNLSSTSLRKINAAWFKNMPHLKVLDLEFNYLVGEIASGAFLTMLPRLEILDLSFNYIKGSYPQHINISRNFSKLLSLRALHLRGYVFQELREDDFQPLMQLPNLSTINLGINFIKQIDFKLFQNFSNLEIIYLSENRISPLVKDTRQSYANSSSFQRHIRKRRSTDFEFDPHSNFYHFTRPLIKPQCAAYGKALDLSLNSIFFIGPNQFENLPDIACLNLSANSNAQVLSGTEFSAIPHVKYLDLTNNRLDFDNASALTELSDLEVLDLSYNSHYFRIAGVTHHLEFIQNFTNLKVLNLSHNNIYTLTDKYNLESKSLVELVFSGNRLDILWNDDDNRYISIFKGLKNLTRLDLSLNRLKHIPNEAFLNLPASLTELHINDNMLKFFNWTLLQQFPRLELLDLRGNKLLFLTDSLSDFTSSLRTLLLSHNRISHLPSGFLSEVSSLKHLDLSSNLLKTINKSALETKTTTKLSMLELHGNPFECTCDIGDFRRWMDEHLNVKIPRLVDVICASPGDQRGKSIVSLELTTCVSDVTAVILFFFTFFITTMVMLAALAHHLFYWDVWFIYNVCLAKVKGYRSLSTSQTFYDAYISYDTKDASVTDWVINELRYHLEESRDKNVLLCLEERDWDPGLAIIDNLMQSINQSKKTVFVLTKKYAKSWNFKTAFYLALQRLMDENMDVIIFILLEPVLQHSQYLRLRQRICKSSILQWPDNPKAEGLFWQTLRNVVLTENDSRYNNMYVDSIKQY
Assay: HEK-Blue hTLR8 reporter assay (QUANTI-Blue, OD650)
Format: cell-based
Conditions: HEK-Blue hTLR8 cells, 24 h; class symbols; read-out: Reporter assay TLR8 EC50
Procedure: In this example, the agonistic activity of the compounds of the present application on hTLR7 (human Toll-like receptor 7) and hTLR8 (human Toll-like receptor 8) was assessed; the induction activity of the compounds on human PBMCs for TNF-α and IFN-α production was assessed in human PBMCs (human peripheral blood mononuclear cells).
All compounds were formulated in DMSO into 30 mM stock solutions and preserved at 4° C. The reference compound ([…], Cat. No. tlrl-r848-5) was purchased from InvivoGen and formulated into a 5 mg/mL stock solution in DMSO and preserved in a freezer at −20° C. HEK-Blue hTLR7 and HEK-Blue hTLR8 cell lines were purchased from InvivoGen, and human PBMCs were purchased from Shanghai Saily Biotechnology Co., Ltd. (Cat. No. XFB—HP100B).
The major instruments used in this study were multifunctional microplate reader Flexstation III (Molecular Device), Envision (Perkin Elmer), M2e (Molecular Device), and Echo555 (Labcyte). 2.1 Agonistic activity of compounds on hTLR7 (human Toll-like receptor 7) and hTLR8 (human Toll-like receptor 8)
Compound dilution: The compounds of the present application are diluted in DMSO, for example, to about 15 mM. The reference compound was added to the plates in sequence after dilution. The compounds were serially 3-fold diluted to 10 concentrations and added to 96-well plates in duplicate.
For the negative control wells, DMSO was added at 0.2 μL/well, and the reference compound was added to the positive control wells. The final concentration of DMSO was 0.2%.
Cell plating: When an 80% confluence of HEK Blue hTLR7&8 cells in the culture flask was observed under a microscope, the culture medium was discarded, 10 mL of detection medium was added, and the cells were separated by pipetting. The cells were counted on a cytometer and diluted to 500,000 cells/mL. The cells were plated at 100 μL/50,000 cells/well in the 96-well plates containing the compounds. The compounds and cells were co-incubated at 37° C. in a 5% CO2 incubator for 24 hours.
Compound activity detection: 20 μL of cell supernatant was taken from each well and added to a plate containing QUANTI-Blue™ reagent at 180 μL/well. The plate was incubated at 37° C. for 1 hour, and the absorbance at 650 nm (OD650) was measured on the multifunctional microplate reader Flexstation III.
Compound activity data analysis: The OD650 values were analyzed by GraphPad Prism software and fitted to give dose-response curves of the compounds. The EC50 values of compounds were calculated.

`CCCN(OCc1ccc(N)cc1)C(=O)C1=Cc2ccc(C(=O)Nc3ccc4cn[nH]c4c3)cc2N=C(N)C1` [Compound 89] and `CCCN(OCc1ccc(N)cc1)C(=O)C1=Cc2ccc(C(=O)NCCO)cc2N=C(N)C1` [Compound 48] fall in the same range of EC50: 10 to 100 nM for the first, 10 to 100 nM for the second.

`CCCN(OCc1ccc(N)cc1)C(=O)C1=Cc2ccc(-c3cncc(S(=O)(=O)N4CCNCC4)c3)cc2N=C(N)C1` [Compound 69] and `CCCN(OCc1ccc(N)cc1)C(=O)C1=Cc2ccc(-c3cccc(S(=O)(=O)NCCO)c3)cc2N=C(N)C1` [Compound 64] cannot be ordered by EC50: ≤ 10 nM for the first, ≤ 10 nM for the second.

`CCCN(OCc1ccc(N)cc1)C(=O)C1=Cc2ccc(C(=O)N[C@H]3C[C@@H]3c3ccccc3)cc2N=C(N)C1` [Compound 78] and `CCCN(OCc1ccc(N)cc1)C(=O)C1=Cc2ccc(C(=O)NC3CCOCC3)cc2N=C(N)C1` [Compound 84] cannot be ordered by EC50: ≤ 10 nM for the first, 10 to 100 nM for the second.

`CCCN(OCc1ccc(N)cc1)C(=O)C1=Cc2ccc(C(=O)N3CC(CO)C3)cc2N=C(N)C1` [Compound 37] and `CCCN(OCc1ccc(N)cc1)C(=O)C1=Cc2ncc(-c3cncc(CO)c3)cc2N=C(N)C1` [Compound 61] cannot be ordered by EC50: 10 to 100 nM for the first, ≤ 10 nM for the second.

Same assay, conditions: HEK-Blue hTLR8 cells, 24 h; read-out: Reporter assay TLR8 EC50

Going from `CCCN(OCc1ccc(N)cc1)C(=O)C1=Cc2ccc(-c3cncc(Cl)c3)cc2N=C(N)C1` [Compound 49] to `CCCN(OCc1ccc(N)cc1)C(=O)C1=Cc2ccc(-c3cncc(CO)c3)cc2N=C(N)C1` [Compound 15], the EC50 falls from 6.6 nM to < 1.5 nM.

First: CCCN(OCc1ccc(N)cc1)C(=O)C1=Cc2ccc(-c3cncc(C#N)c3)cc2N=C(N)C1 [Compound 50]
Second: CCCN(OCc1ccc(N)cc1)C(=O)C1=Cc2ccc(-c3cncc(CN)c3)cc2N=C(N)C1 [Compound 54]
The EC50 of the first is higher: 1.5 nM for the first, < 1.5 nM for the second.

Compared with `NC1=Nc2cc(-c3cncc(CO)c3)ccc2C=C(C(=O)N(CC2CC2)OCc2ccc(N)cc2)C1` [Compound 45], `CCCN(OCc1ccc(N)cc1)C(=O)C1=Cc2ccc(-c3cncc(S(C)(=O)=O)c3)cc2N=C(N)C1` [Compound 56] is lower in EC50: 2.3 nM for the first, < 1.5 nM for the second.

`CCCN(OCc1ccc(N)cc1)C(=O)C1=Cc2ccc(-c3cccc(S(=O)(=O)N4CC(O)C4)c3)cc2N=C(N)C1` [Compound 41] gave an EC50 of 5.37 nM.
